According to patent publication US6608082B1, “Treatment of erectile dysfunction using isoquinoline compound melanocortin receptor ligands” (Lion Bioscience AG, priority 1998, dated 2003):
Like-named read-outs stand apart in the source and are kept apart here.

Key:
MCR-1 = molecular target: T1, MCR-1 (Homo sapiens, UniProt Q01726); assay: Melanocortin receptor binding assay, competition with 125I-HP 467, HEK 293 cells expressing hMCR-1; details: for IC50: read-out: MC-1 IC50
T1 construct: expressed in transfected cells; host or cells: HEK 293
T1 sequence (Q01726 whole entry): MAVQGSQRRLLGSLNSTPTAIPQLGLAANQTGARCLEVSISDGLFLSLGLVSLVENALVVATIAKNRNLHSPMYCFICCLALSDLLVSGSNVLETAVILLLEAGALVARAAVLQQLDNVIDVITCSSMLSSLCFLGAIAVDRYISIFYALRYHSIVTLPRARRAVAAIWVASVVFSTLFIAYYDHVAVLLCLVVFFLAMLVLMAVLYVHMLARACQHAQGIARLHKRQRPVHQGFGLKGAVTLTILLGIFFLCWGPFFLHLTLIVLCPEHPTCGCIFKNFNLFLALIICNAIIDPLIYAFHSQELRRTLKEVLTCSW
Procedure, shortened: (§1)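 Intact-cell competition binding, 2.5 hr at 37 °C, in PBS/10% calf serum/1 mM CaCl2; hMCR-4 cells at 4×10^3 per tube, hMCR-1 cells at 2×10^4 per tube. Filtration on BSA/CaCl2-soaked GF/B, cold 50 mM Tris pH 7.4 washes, scintillation count.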

MCR-4 = molecular target: T2, MCR-4 (Homo sapiens, UniProt P32245); assay: Melanocortin receptor binding assay, competition with 125I-HP 467, HEK 293 cells expressing hMCR-4; details: read-out: MC-4 IC50
T2 construct: expressed in transfected cells; host or cells: HEK 293
T2 sequence (P32245 whole entry): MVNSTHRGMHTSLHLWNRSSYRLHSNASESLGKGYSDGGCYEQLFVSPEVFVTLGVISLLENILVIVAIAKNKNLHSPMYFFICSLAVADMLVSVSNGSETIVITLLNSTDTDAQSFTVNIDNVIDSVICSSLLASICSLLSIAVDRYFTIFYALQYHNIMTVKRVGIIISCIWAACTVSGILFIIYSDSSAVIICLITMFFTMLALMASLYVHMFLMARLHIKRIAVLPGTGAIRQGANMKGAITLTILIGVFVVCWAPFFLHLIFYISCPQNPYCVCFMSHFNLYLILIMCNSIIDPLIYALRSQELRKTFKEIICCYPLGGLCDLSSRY
Procedure, shortened: as §1

[1] = inhibition of binding of 125I-HP 467, HEK 293 cells expressing MCR-1
[2] = inhibition of binding of 125I-HP 467, HEK 293 cells expressing MCR-4
[3] = TRG 2406 and TRG 2407 libraries, inhibition of binding of 125I-HP 467
[4] = TRG 2408 and TRG 2409 libraries, inhibition of 125I-HP 467 binding
[5] = inhibition of binding of 125I-HP 467, HEK 293 cells expressing MCR-1, TRG 2414 library
[6] = inhibition of binding of 125I-HP 467, HEK 293 cells expressing MCR-4, TRG 2414 library
[7] = TRG 2414 library, inhibition of binding of 125I-HP 467, HEK 293 cells expressing MCR-1
[8] = TRG 2414 library, inhibition of binding of 125I-HP 467, HEK 293 cells expressing MCR-4

NCC(CCCCN1Cc2ccccc2C(CNCCc2ccccc2)C1c1cc(C(F)(F)F)cc(C(F)(F)F)c1)NCc1ccc(-c2ccccc2)cc1 (centres unmarked) [TRG 2421-5]
IC50 (MCR-1; [1]): 11.2 µM | IC50 (MCR-4; [2]): 9.41 µM

COc1cccc(CCNCC2c3ccccc3CN(CCCCC(CN)NCc3ccccc3)C2c2cc(C(F)(F)F)cc(C(F)(F)F)c2)c1 (centres unmarked) [TRG 2421-36]
IC50 (MCR-1; [1]): 3.99 µM | IC50 (MCR-4; [2]): 0.89 µM

CNC(CN)CCCCN1Cc2ccccc2C(CNCc2ccccc2)C1c1ccc(Cl)cc1Cl (centres unmarked) [TRG 2407-10]
IC50 (MCR-1; [3]): 4.13 µM | IC50 (MCR-4; [3]): 3.85 µM

COc1ccc(CCNCC2c3ccccc3CN(CCCCC(CN)NCc3ccccc3)C2c2cc(C(F)(F)F)cc(C(F)(F)F)c2)cc1OC (centres unmarked) [TRG 2421-16]
IC50 (MCR-1; [1]): 2.42 µM | IC50 (MCR-4; [2]): 0.36 µM

CNCCN[C@@H](CN)CCCCN1Cc2ccccc2C(CNC2CCCCC2)C1c1ccc(-c2ccccc2)cc1 (some centres unmarked) [TRG 2408-54]
IC50 (MCR-1; [4]): 0.61 µM | IC50 (MCR-4; [4]): 26.8 µM

CCNc1ccc(C2C(CN)c3ccccc3CN2CCCC(CN)NCC2CC2CNCCc2ccccc2)cc1 (centres unmarked) [TRG 2420-28]
IC50 (MCR-1; [1]): 0.203 µM | IC50 (MCR-4; [2]): 4.08 µM

CCNc1ccc(C2C(CN)c3ccccc3CN2CCCC(CN)NCCC2CCCCC2)cc1 (centres unmarked) [TRG 2411-186]
effectiveness as MC receptor ligand (MCR-1; binding to MC receptors, Table 1): particularly effective MC receptor ligands | IC50 (MCR-1; [1]): 0.03 µM | IC50 (MCR-4; [2]): 0.58 µM

CCNc1ccc(C2C(CN(C)c3ccccc3)c3ccccc3CN2CCCCC(CN)NC)cc1 (centres unmarked) [TRG 2407-42]
IC50 (MCR-1; [3]): 4.23 µM | IC50 (MCR-4; [3]): 7.9 µM

COc1ccccc1CCNCC1c2ccccc2CN(CCCCC(N)CN)C1c1ccc(Oc2ccccc2)cc1 (mixture of isomers) [TRG 2414-129]
IC50 (MCR-1; [5]): 0.146 µM | IC50 (MCR-4; [6]): 5.58 µM

CNC(CN)CCCCN1Cc2ccccc2C(CN(C)c2ccccc2)C1c1ccc(Cl)cc1Cl (centres unmarked) [TRG 2407-2]
IC50 (MCR-1; [3]): 5.75 µM | IC50 (MCR-4; [3]): 6.26 µM

CCNc1ccc(C2C(CN)c3ccccc3CN2CCCC(CN)NCCCCNc2ccccc2)cc1 (centres unmarked) [TRG 2419-9]
IC50 (MCR-1; [1]): 0.239 µM | IC50 (MCR-4; [2]): 10 µM

NCC(N)CCCCN1Cc2ccccc2C(CNCCc2cccc(Cl)c2)C1c1ccc(Cl)cc1Cl (centres unmarked) [TRG 2414-13]
IC50 (MCR-1; [5]): 2.19 µM | IC50 (MCR-4; [6]): 1.18 µM

CCNc1ccc(C2C(CNCCc3ccccc3)c3ccccc3CN2CCCC(CN)NCC)cc1 (centres unmarked) [TRG 2411-152]
IC50 (MCR-1; [1]): 0.06 µM | IC50 (MCR-4; [2]): 0.52 µM

CCNc1ccc(C2C(CNC3CCCCC3)c3ccccc3CN2CCCC(CN)NCCC2CCCCC2)cc1 (centres unmarked) [TRG 2411-173]
IC50 (MCR-1; [1]): 0.14 µM | IC50 (MCR-4; [2]): 1.59 µM

NCCNC(CN)CCCN1Cc2ccccc2C(CNC2CCCCC2)C1c1ccc(-c2ccccc2)cc1 (centres unmarked) [TRG 2408-83]
IC50 (MCR-1; [4]): 1.77 µM | IC50 (MCR-4; [4]): 11.1 µM

CNC(CN)CCCCN1Cc2ccccc2C(CNCCc2ccccc2)C1c1ccc(Cl)cc1Cl (centres unmarked) [TRG 2407-21]
IC50 (MCR-1; [3]): 1.03 µM | IC50 (MCR-4; [3]): 0.36 µM

NCC(CCCCN1Cc2ccccc2C(CNCCc2ccc(Cl)cc2)C1c1cc(C(F)(F)F)cc(C(F)(F)F)c1)NCc1ccc(Br)cc1 (centres unmarked) [TRG 2421-33]
IC50 (MCR-1; [1]): 6.93 µM | IC50 (MCR-4; [2]): 8.36 µM

CCNC(CN)CCCCN1Cc2ccccc2C(CN)C1c1ccc(O)cc1 (centres unmarked) [TRG 2415-15]
MC-1 IC50 (MCR-1; [1]): no fit | IC50 (MCR-4; [2]): 63.9 µM

CCNc1ccc(C2C(CNC3CCCCC3)c3ccccc3CN2CCCCC(CN)NCCc2ccccc2)cc1 (centres unmarked) [TRG 2408-32]
IC50 (MCR-1; [4]): 1.15 µM | IC50 (MCR-4; [4]): 9.44 µM

CCCOc1ccc(C2C(CNCc3ccccc3O)c3ccccc3CN2CCN)cc1 (centres unmarked) [TRG 2406-14]
IC50 (MCR-1; [3]): 8.31 µM | IC50 (MCR-4; [3]): 5.36 µM

CCCOc1ccc(C2C(CNCCc3ccc(OC)cc3)c3ccccc3CN2CCCCC(CN)NCc2ccccc2)cc1 (centres unmarked) [Cmpd 187]
IC50 (MCR-1; [7]): 1.07 µM | IC50 (MCR-4; [8]): 1.47 µM

NCC(CCCCN1Cc2ccccc2C(CNCCc2cccc(Cl)c2)C1c1ccc(Oc2ccccc2)cc1)NCc1ccccc1 (centres unmarked) [TRG 2414-135]
IC50 (MCR-1; [5]): 10.1 µM | IC50 (MCR-4; [6]): 46 µM

CCNc1ccc(C2C(CN)c3ccccc3CN2CCCC(CN)NCCCCN)cc1 (centres unmarked) [TRG 2419-11]
IC50 (MCR-1; [1]): 0.199 µM | IC50 (MCR-4; [2]): 18.4 µM

CCNc1ccc(C2C(CN)c3ccccc3CN2CCCC(CN)NCCCCN2CCCCC2)cc1 (centres unmarked) [TRG 2419-13]
IC50 (MCR-1; [1]): 0.073 µM | IC50 (MCR-4; [2]): 2.51 µM

CCNc1ccc(C2C(CNC3CCCCC3)c3ccccc3CN2CC[C@@H](CN)NC)cc1 (some centres unmarked) [TRG 2408-90]
IC50 (MCR-1; [4]): 5.9 µM | IC50 (MCR-4; [4]): 25.2 µM

COc1cccc(CCNCC2c3ccccc3CN(CCCCC(CN)NCc3ccc(-c4ccccc4)cc3)C2c2cc(C(F)(F)F)cc(C(F)(F)F)c2)c1 (centres unmarked) [TRG 2421-40]
IC50 (MCR-1; [1]): 12.1 µM | IC50 (MCR-4; [2]): 3.98 µM

NCC(N)CCCCN1Cc2ccccc2C(CNCCc2ccccc2)C1c1ccc(-c2ccccc2)cc1 (centres unmarked) [TRG 2411-1]
IC50 (MCR-1; competition with 125I-HP 467, HEK 293 cells expressing MCR-1): 0.6 µM | IC50 (MCR-4; competition with 125I-HP 467, HEK 293 cells expressing MCR-4): 1.22 µM

COc1ccc(CCNCC2c3ccccc3CN(CCCCC(CN)NCc3ccc(OC)cc3)C2c2cccc(C(F)(F)F)c2)cc1 (centres unmarked) [TRG 2421-44]
IC50 (MCR-1; [1]): 1.54 µM | IC50 (MCR-4; [2]): 1.42 µM

COc1ccccc1CCNCC1c2ccccc2CN(CCCCC(CN)NCCc2ccccc2)C1c1cc(C(F)(F)F)cc(C(F)(F)F)c1 (centres unmarked) [TRG 2414-50]
IC50 (MCR-1; [5]): 8.09 µM | IC50 (MCR-4; [6]): 4.94 µM

NCC(CCCCN1Cc2ccccc2C(CNC2CCCCC2)C1c1ccccc1Br)NCCc1ccccc1 (centres unmarked) [Cmpd 238]
IC50 (MCR-1; [7]): 2.78 µM | IC50 (MCR-4; [8]): 5.22 µM

CNC(CN)CCCCN1Cc2ccccc2C(CNCCc2ccccc2Cl)C1c1ccc(Cl)cc1Cl (mixture of isomers) [TRG 2407-22]
IC50 (MCR-1; [3]): 1.34 µM | IC50 (MCR-4; [3]): 0.69 µM

NCC(N)CCCCN1Cc2ccccc2C(CNC2CCCCCC2)C1c1ccccc1Br (centres unmarked) [Cmpd 233]
IC50 (MCR-1; [7]): 3.32 µM | IC50 (MCR-4; [8]): 3.27 µM

COc1cccc(CNCC2c3ccccc3CN(CCCCC(CN)NCCc3ccccc3)C2c2cc(C(F)(F)F)cc(C(F)(F)F)c2)c1 (centres unmarked) [TRG 2414-58]
IC50 (MCR-1; [5]): 6.72 µM | IC50 (MCR-4; [6]): 3.45 µM

COc1ccccc1CCNCC1c2ccccc2CN(CCCCC(CN)NCC(C)c2ccc(CC(C)C)cc2)C1c1cc(C(F)(F)F)cc(C(F)(F)F)c1 (mixture of isomers) [TRG 2414-52]
IC50 (MCR-1; [5]): 22.1 µM | IC50 (MCR-4; [6]): 17.5 µM

COc1ccc(CCNCC2c3ccccc3CN(CCCCC(CN)NCc3ccc(-c4ccccc4)cc3)C2c2cc(C(F)(F)F)cc(C(F)(F)F)c2)cc1OC (centres unmarked) [TRG 2421-20]
IC50 (MCR-1; [1]): 4.22 µM | IC50 (MCR-4; [2]): 1.97 µM

CCNc1ccc(C2C(CNCCc3ccccc3)c3ccccc3CN2CCCC(CN)NCCCCCNCc2ccccc2)cc1 (centres unmarked) [TRG 2420-2]
IC50 (MCR-1; [1]): 0.076 µM | IC50 (MCR-4; [2]): 4.05 µM

COc1ccc(CCNCC2c3ccccc3CN(CCCCC(N)CN)C2c2ccc(Oc3ccccc3)cc2)cc1 (centres unmarked) [TRG 2414-145]
IC50 (MCR-1; [5]): 2.05 µM | IC50 (MCR-4; [6]): 3.47 µM

CNC(CN)CCCCN1Cc2ccccc2C(CNc2cccc(Cl)c2)C1c1ccc(Cl)cc1Cl (centres unmarked) [TRG 2407-5]
IC50 (MCR-1; [3]): 8.82 µM | IC50 (MCR-4; [3]): 14.7 µM

CCNc1ccc(C2C(CNCc3ccccc3Cl)c3ccccc3CN2CCCCC(CN)NC)cc1 (centres unmarked) [TRG 2407-52]
IC50 (MCR-1; [3]): 0.44 µM | IC50 (MCR-4; [3]): 1.56 µM

NCC(CCCCN1Cc2ccccc2C(CNC2CCCCC2)C1c1ccc(-c2ccccc2)cc1)NCCc1ccccc1 (centres unmarked) [TRG 2408-52]
IC50 (MCR-1; [4]): 3.69 µM | IC50 (MCR-4; [4]): 12.3 µM

CCNc1ccc(C2C(CNCCc3ccccc3)c3ccccc3CN2CCCC(CN)NCC2CC2CN(CC)CC)cc1 (centres unmarked) [TRG 2420-7]
IC50 (MCR-1; [1]): 0.063 µM | IC50 (MCR-4; [2]): 1.81 µM

COc1ccc(CCNCC2c3ccccc3CN(CCCCC(CN)NCc3ccccc3)C2c2cc(C(F)(F)F)cc(C(F)(F)F)c2)cc1 (centres unmarked) [TRG 2414-67]
IC50 (MCR-1; [5]): 0.033 µM | IC50 (MCR-4; [6]): 5.21 µM

COc1cccc(CNCC2c3ccccc3CN(CCCCC(CN)NCc3ccccc3)C2c2ccccc2Br)c1 (centres unmarked) [Cmpd 219]
IC50 (MCR-1; [7]): 10.3 µM | IC50 (MCR-4; [8]): 9.59 µM

COc1cccc(CCNCC2c3ccccc3CN(CCCCC(CN)NCc3ccc(C)cc3)C2c2cc(C(F)(F)F)cc(C(F)(F)F)c2)c1 (centres unmarked) [TRG 2421-37]
IC50 (MCR-1; [1]): 3.08 µM | IC50 (MCR-4; [2]): 0.84 µM
